Source: patent publication US4604239A, “Antibiotics” (Eli Lilly and Company, priority 1985, dated 1986)
≈ marks a conversion by molar mass, not a printed value.

Key:
Bacteroides corrodens = experiment: agar-dilution MIC; format: cell-based; details: B. corrodens 1874; 24-hour; Table 12
Source text: (§1) The A41030 antibiotics, factors A, B, and C, are active against a genus of anaerobic bacteria identified as Bacteroides sp., the 24-hour MIC values being determined by the agar-dilution method, and are set forth in Table 12, which follows.

Bacteroides vulgatis = experiment: agar-dilution MIC; format: cell-based; details: B. vulgatis 1563; 24-hour; Table 12
Source text: as §1

Propionibacterium acnes = experiment: agar-dilution MIC; format: cell-based
Source text: Antibiotic A41030 factors A, B and C have also been tested and found to be active against a genus of anaerobic bacteria identified as Propionibacterium acnes.

[1] = test system: Peptococcus asaccharolyticus; experiment: agar-dilution MIC; format: cell-based
Method: (§2) The MIC values were determined by the agar-dilution method, and are recorded in Table 15, which follows.

Peptococcus constellatus = experiment: agar-dilution MIC; format: cell-based; details: Pc. constellatus 1468; Table 15
Method: as §2

[2] = test system: Peptostreptococcus anaerobius; experiment: agar-dilution MIC; format: cell-based
Fusobacterium symbiosum = experiment: agar-dilution MIC; format: cell-based; details: Fusobacterium symbiosum 1470; Table 14
Enterobacter aerogenes = experiment: agar-dilution MIC; format: cell-based; details: Enterobacter aerogenes C32; Table 17
Source text: The results after reading the which follows.

[3] = test system: Streptococcus sp. ATCC 10389; experiment: agar-dilution MIC; format: cell-based; details: end point after 24 hours, Table 18
Source text: (§3) The in vitro activity of antibiotic A41030 factors A and B against a number of representative aerobic, gram-positive bacteria, including Streptococcus sp. Group D, has been determined using a standard agar-dilution assay.

[4] = test system: Streptococcus sp. Group B; experiment: agar-dilution MIC; format: cell-based; details: Streptococcus sp. Group B 5; end point after 24 hours; Table 18
Source text: as §3

[5] = test system: Haemophilus parainfluenzae; experiment: agar-dilution MIC; format: cell-based; details: end point after 24 hours, Table 18
S. pneumoniae = experiment: experimental bacterial infection in mice; format: in vivo; details: two doses subcutaneously
Method: All of the A41030 factors tested have shown in vivo antimicrobial activity against experimental bacterial infections. When two doses of test compound were administered subcutaneously to mice in illustrative infections, the activity observed is measured as an ED50 value [effective dose in mg./kg. to protect fifty percent of the test animals: See Warren Wick, et al., J. Bacteriol. 81, 233-235 (1961)].

N[C@H]1C(=O)N[C@@H]2Cc3ccc(c(Cl)c3)Oc3cc4cc(c3O)Oc3ccc(cc3Cl)[C@@H](O)[C@@H]3NC(=O)C(NC(=O)[C@@H]4NC(=O)[C@@H](NC2=O)c2cc(O)cc(c2)Oc2cc1ccc2O)c1ccc(O)c(c1)-c1c(O)cc(O)cc1[C@@H](C(=O)O)NC3=O [A41030 factor B] was tested. Which MIC (Bacteroides corrodens) did it give?
Its MIC is 32 µg/mL (≈ 26.7 µM).

What about the MIC (Bacteroides vulgatis) of the same compound?
The MIC was 32 µg/mL (≈ 26.7 µM).

What about the MIC (Propionibacterium acnes; P. acnes 44, 24-hour, Table 13) of the same compound?
Its MIC is 0.06 µg/mL (≈ 0.05 µM).

What about the MIC (Propionibacterium acnes; P. acnes 79, 24-hour, Table 13) of the same compound?
The MIC was 0.06 µg/mL (≈ 0.05 µM).

What about the MIC (Propionibacterium acnes; P. acnes 101, 24-hour, Table 13) of the same compound?
The MIC was 0.06 µg/mL (≈ 0.05 µM).

And the MIC (Propionibacterium acnes; P. acnes 103, 24-hour, Table 13)?
The MIC was 0.06 µg/mL (≈ 0.05 µM).

And the MIC (Propionibacterium acnes; P. acnes 104, 24-hour, Table 13)?
Its MIC is 0.25 µg/mL (≈ 0.209 µM).

And the MIC (Propionibacterium acnes; P. acnes 105, 24-hour, Table 13)?
Its MIC is 0.06 µg/mL (≈ 0.05 µM).

And the MIC (Propionibacterium acnes; P. acnes 106, 24-hour, Table 13)?
The MIC was 0.06 µg/mL (≈ 0.05 µM).

What about the MIC (Propionibacterium acnes; P. acnes 107, 24-hour, Table 13) of the same compound?
The MIC was 0.06 µg/mL (≈ 0.05 µM).

And the MIC (Propionibacterium acnes; P. acnes 5170, 24-hour, Table 13)?
Its MIC is no more than 0.03 µg/mL.

And the MIC (Propionibacterium acnes; P. acnes 5176, 24-hour, Table 13)?
The MIC was 0.06 µg/mL (≈ 0.05 µM).

And the MIC (Propionibacterium acnes; P. acnes 5187, 24-hour, Table 13)?
The MIC was 0.06 µg/mL (≈ 0.05 µM).

And the MIC (Propionibacterium acnes; P. acnes 5191, 24-hour, Table 13)?
The MIC was 0.06 µg/mL (≈ 0.05 µM).

And the MIC (Propionibacterium acnes; P. acnes 5197, 24-hour, Table 13)?
Its MIC is 0.06 µg/mL (≈ 0.05 µM).

And the MIC (Propionibacterium acnes; P. acnes 5226, 24-hour, Table 13)?
The MIC was 0.5 µg/mL (≈ 0.417 µM).

And the MIC (Propionibacterium acnes; P. acnes 5227, 24-hour, Table 13)?
Its MIC is 0.06 µg/mL (≈ 0.05 µM).

What about the MIC (Propionibacterium acnes; P. acnes 5228, 24-hour, Table 13) of the same compound?
Its MIC is 0.5 µg/mL (≈ 0.417 µM).

And the MIC (Propionibacterium acnes; P. acnes 5229, 24-hour, Table 13)?
The MIC was 0.25 µg/mL (≈ 0.209 µM).

What about the MIC (Propionibacterium acnes; P. acnes 5292, 24-hour, Table 13) of the same compound?
Its MIC is 0.06 µg/mL (≈ 0.05 µM).

And the MIC (Propionibacterium acnes; Propionibacterium acnes 79, Table 14)?
The MIC was 16 µg/mL (≈ 13.3 µM).

And the MIC ([1]; Pc. asaccharolyticus 1344, Table 15)?
Its MIC is 0.5 µg/mL (≈ 0.417 µM).

And the MIC ([1]; Peptococcus asaccharolyticus 1302, Table 14)?
Its MIC is no more than 0.25 µg/mL.

And the MIC (Peptococcus constellatus)?
The MIC was 0.5 µg/mL (≈ 0.417 µM).

What about the MIC ([2]; Peptostreptococcus anaerobius 1428, Table 14) of the same compound?
The MIC was no more than 0.25 µg/mL.

And the MIC ([2]; Ps. anaerobius 8, Table 15)?
The MIC was 0.25 µg/mL (≈ 0.209 µM).

And the MIC ([2]; Ps. anaerobius 52, Table 15)?
The MIC was 0.5 µg/mL (≈ 0.417 µM).

What about the MIC ([2]; Ps. anaerobius 59, Table 15) of the same compound?
Its MIC is 0.25 µg/mL (≈ 0.209 µM).

What about the MIC ([2]; Ps. anaerobius 1418, Table 15) of the same compound?
The MIC was 0.06 µg/mL (≈ 0.05 µM).

What about the MIC ([2]; Ps. anaerobius 1428, Table 15) of the same compound?
Its MIC is 0.25 µg/mL (≈ 0.209 µM).

And the MIC ([2]; Ps. anaerobius 1451, Table 15)?
Its MIC is 0.25 µg/mL (≈ 0.209 µM).

And the MIC (Fusobacterium symbiosum)?
The MIC was 1.0 µg/mL (≈ 0.834 µM).

And the MIC (Enterobacter aerogenes)?
Its MIC is 64 µg/mL (≈ 53.4 µM).

What about the MIC [3] of the same compound?
The MIC was 0.25 µg/mL (≈ 0.209 µM).

What about the MIC [4] of the same compound?
Its MIC is 1 µg/mL (≈ 0.834 µM).

And the MIC ([5]; Haemophilus parainfluenzae 7901)?
Its MIC is 16 µg/mL (≈ 13.3 µM).

What about the MIC ([5]; Haemophilus parainfluenzae 9796) of the same compound?
Its MIC is 16 µg/mL (≈ 13.3 µM).

What about the ED50 (S. pneumoniae) of the same compound?
Its ED50 is 1.4 mg/kg.
